Assay [1] has as its system HT22 cells. The assay can be described thus: In vitro ischemia assay (HT22 cell IAA assay, MTT). The conditions noted are these: for increase of survival over the neuroprotective concentration range / neuroprotective concentration range: 20 μM IAA 2 hr, MTT at 24 hours; for percent protection from IAA-induced cell death at 0.1 µM / Emax: HT-22; for percent protection from IAA-induced cell death at 0.1 µM: compound 100 nM; for Emax: HT22 Cell IAA assay, read-out: Max Protection. The assay is classed as cell-based, mouse. A digest of the protocol: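 Mouse HT22 hippocampal cells in DMEM/7.5% DFCS exposed 2 hr to 20 μM iodoacetic acid with or without derivative, then 20 hr in IAA-free medium still containing derivative. Viability by MTT (2.5 μg/ml, 4 hr, 37 °C), absorbance at 570 nm.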

The nature of assay [2]: TEAC, ABTS decolorization assay. The following applies: relative to Trolox. The essentials:
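Compound in ethanol added to persulfate-generated ABTS radical cation (OD ~0.7 at 734 nm); absorbance decrease followed at 734 nm for 4 min. TEAC is the slope of percent absorbance inhibition versus concentration divided by the corresponding Trolox slope.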

[3] abbreviates: Mus musculus, HT-22, HT22 cells, 20 μM IAA, read-out: HT22 Cell IAA assay EC50.
Where [4] appears, read: Mus musculus, HT-22, HT22 cells, 20 μM IAA for 2 hr, viability after 24 hr by MTT, read-out: EC50 in vitro ischemia.
The mark [5] stands for this setting: HT22 cells, 20 μM IAA, read-out: HT22 Cell IAA assay EC50.

The structures appear in SMILES notation. Where two headings read alike, the source gives them in different places.

Results on 18 molecules are retold here after patent US20140186329A1, “POLYPHENOL ANALOGS TO TREAT ISCHEMIA” (priority 2011, published 2014).

As to `O=c1cc(-c2ccccc2)oc2cc(O)c(O)c(O)c12` [Baicalein, 5,6,7-trihydroxyflavone, reference compound], the “HT22 Cell IAA assay (maximal % protection)” value in assay [1] (20 μM IAA) was determined as 85%. Also, in assay [1] (HT22 cells), the “increase of survival over the neuroprotective concentration range” value is on record as “greater than 80%” and the neuroprotective concentration range fell in the range of 2.5 to 10 µM. Also, in assay [1] (setting [3]), the EC50 came out at 1500 nM.
For the molecule `O=c1c(O)c(-c2ccc(O)c(O)c2)oc2ccccc12` [CMS-04P, reference compound], the TEAC in assay [2] is 2. Further, the EC50 in assay [1] (setting [4]) and in assay [1] (setting [3]) was 500 nM throughout. Moreover, in assay [1] (in vitro ischemia, HT22/IAA), the “fold improvement of neuroprotective activity/potency relative to Fisetin” value is recorded as about 6 fold.
In turn, `COc1cc(-c2ccc(O)c(O)c2)nc2ccccc12` [CMS-007, 4-methoxy-2-(3,4-dihydroxyphenyl) quinoline] yielded a TEAC in assay [2] of 0.36. For the same molecule, the EC50 in assay [1] (setting [4]) is 40 nM. Also, in assay [1] (Mus musculus, 20 μM IAA), the percent protection from IAA-induced cell death at 0.1 µM came out at 71%. Besides, the “fold improvement of neuroprotective activity/potency relative to Fisetin” value in assay [1] (in vitro ischemia, HT22/IAA) is recorded as about 75 fold.
For the molecule `Cc1cc(O)c(C(=O)/C=C/c2ccc(O)c(O)c2)cc1C` [CMS-011, (E)-3-(3,4-dihydroxyphenyl)-1-(2-hydroxy-4,5-dimethylphenyl)prop-2-en-1-one], the TEAC in assay [2] is 2.7. For the same molecule, the EC50 in assay [1] (setting [5]) was 53 nM; in assay [1] (setting [4]) it was 50 nM; in assay [1] (setting [3]), 50 nM. Further, the percent protection from IAA-induced cell death at 0.1 µM in assay [1] (Mus musculus, 20 μM IAA) was 62%.
In assay [2], `CCOc1cc(-c2ccc(O)c(O)c2)nc2ccccc12` [CMS-023, 4-ethoxy-2-(3,4-dihydroxyphenyl) quinoline] came in with a TEAC of 0.90. The EC50 in assay [1] (setting [4]) was found to be 20 nM; in assay [1] (setting [3]), 21 nM. Further, the percent protection from IAA-induced cell death at 0.1 µM in assay [1] (Mus musculus, 20 μM IAA) came out at 72%. Besides, the “fold improvement of neuroprotective activity relative to CMS-007” value in assay [1] (in vitro ischemia, HT22/IAA) is about 2 fold. Moreover, in assay [1] (in vitro ischemia, HT22/IAA), the “fold improvement of neuroprotective activity/potency relative to Fisetin” value is given as about 140 fold.
In turn, `CC(C)Oc1cc(-c2ccc(O)c(O)c2)nc2ccccc12` [CMS-024, 4-isopropoxy-2-(3,4-dihydroxyphenyl) quinoline] came in with a TEAC in assay [2] of 0.18. Also, the EC50 was found to be 20 nM in assay [1] (setting [4]) and 21 nM in assay [1] (setting [3]). Besides, the percent protection from IAA-induced cell death at 0.1 µM in assay [1] (Mus musculus, 20 μM IAA) stood at 72%. In assay [1] (in vitro ischemia, HT22/IAA), the “fold improvement of neuroprotective activity relative to CMS-007” value is reported as about 2 fold.
In assay [2], `O=C(/C=C/c1ccc(O)c(O)c1)c1ccc2ccccc2c1O` [CMS-034, (E)-3-(3,4-dihydroxyphenyl)-1-(1-hydroxynaphthalen-2-yl)prop-2-en-1-one] displayed a TEAC of 2.8. Moreover, the figures for the EC50 in assay [1] (setting [5]), in assay [1] (setting [4]) and in assay [1] (setting [3]) were 79 nM, 80 nM and at most 100 nM, respectively. Also, the percent protection from IAA-induced cell death at 0.1 µM in assay [1] (Mus musculus, 20 μM IAA) amounted to 63%. Besides, the Emax in assay [1] (Mus musculus) worked out at 81%.
Consider `O=c1c(O)c(-c2ccc(O)c(O)c2)oc2c1ccc1ccccc12` [CMS-040, 2-(3,4-dihydroxyphenyl)-3-hydroxy-4H-benzo[h]chromen-4-one], for which the TEAC in assay [2] stood at 2.4. Also, in assay [1] (setting [4]), the EC50 was found to be 90 nM. Further, the percent protection from IAA-induced cell death at 0.1 µM in assay [1] (Mus musculus, 20 μM IAA) was 67%. Further, the “fold enhancement of neuroprotective activity relative to CMS-04P” value in assay [1] (in vitro ischemia, HT22/IAA) was about 5.5 fold.
In assay [2], `COc1cc(-c2oc3cc(C)c(C)cc3c(=O)c2O)ccc1OCc1ccccc1` [CMS-059, 2-(4-(benzyloxy)-3-methoxyphenyl)-3-hydroxy-6,7-dimethyl-4H-chromen-4-one] registered a TEAC of 0.27. Besides, the EC50 turned out to be 170 nM in assay [1] (setting [4]) and 167 nM in assay [1] (setting [3]). The percent protection from IAA-induced cell death at 0.1 µM in assay [1] (Mus musculus, 20 μM IAA) amounted to 49%.
`COc1cc(-c2oc3cc(C)c(C)cc3c(=O)c2O)ccc1O` [CMS-069, 3-hydroxy-2-(4-hydroxy-3-methoxyphenyl)-6,7-dimethyl-4H-chromen-4-one]: the TEAC in assay [2] turned out to be 1.89. Moreover, the EC50 in assay [1] (setting [5]) was 36 nM; in assay [1] (setting [4]), 40 nM; in assay [1] (setting [3]), under 40 nM. Also, the percent protection from IAA-induced cell death at 0.1 µM in assay [1] (Mus musculus, 20 μM IAA) is 67%.
Molecule `COc1ccc(/C=C/C(=O)c2cc(C)c(C)cc2O)cc1OCc1ccccc1` [CMS-086, (E)-3-(3-(benzyloxy)-4-methoxyphenyl)-1-(2-hydroxy-4,5-dimethylphenyl)prop-2-en-1-one] displayed a TEAC in assay [2] of 0.12. Also, in assay [1] (HT22 cells, 20 μM IAA for 2 hr, viability after 24 hr by MTT), the “EC50 in vitro ischemia (μM)” value is “no”.
`Cc1cc2oc(-c3ccc(N(C)C)cc3)c(O)c(=O)c2cc1C` [CMS-117, 2-(4-(dimethylamino)phenyl)-3-hydroxy-6,7-dimethyl-4H-chromen-4-one] yielded a TEAC in assay [2] of 3. Further, in assay [1] (setting [4]), the EC50 turned out to be 20 nM. Also, the Emax in assay [1] (Mus musculus) is 81%.
Take `CN(C)c1ccc(-c2oc3c(ccc4ccccc43)c(=O)c2O)cc1` [CMS-118, 2-(4-(dimethylamino)phenyl)-3-hydroxy-4H-benzo[h]chromen-4-one]: in assay [2], the TEAC was found to be 0.93. The EC50 in assay [1] (setting [4]) was 40 nM. Besides, the Emax in assay [1] (Mus musculus) came to 82%.
Take `Oc1ccc(-c2cc(OC3CCCC3)c3ccccc3n2)cc1O` [CMS-121, 4-cyclopentyloxy-2-(3,4-dihydroxyphenyl) quinoline]: the TEAC in assay [2] was 0.40. In addition, the EC50 in assay [1] (setting [4]) stood at 7 nM. The Emax in assay [1] (Mus musculus) is 86%. The “fold improvement of neuroprotective activity/potency relative to Fisetin” value in assay [1] (in vitro ischemia, HT22/IAA) was over 400 fold.
Molecule `Cc1cc2oc(-c3ccc(N4CCCC4)cc3)c(O)c(=O)c2cc1C` [CMS-122, 3-hydroxy-6,7-dimethyl-2-(4-(pyrrolidin-1-yl)phenyl)-4H-chromen-4-one] showed a TEAC in assay [2] of 2.4. Also, the EC50 in assay [1] (setting [4]) turned out to be 90 nM.
The molecule `O=c1c(O)c(-c2ccc(N3CCCC3)c(O)c2)oc2c1ccc1ccccc12` [CMS-140, 3-hydroxy-2-(3-hydroxy-4-(pyrrolidin-1-yl)phenyl)-4H-benzo[h]chromen-4-one] showed a TEAC in assay [2] of 2.1. For the same molecule, the EC50 in assay [1] (setting [4]) amounted to 5 nM. In assay [1] (Mus musculus), the Emax was determined as 89%. Further, the “fold improvement of neuroprotective activity/potency relative to Fisetin” value in assay [1] (in vitro ischemia, HT22/IAA) is “up to 600 fold”.
In the case of `O=C(/C=C/c1ccc(O)c(O)c1)O[C@@H]1C[C@](O)(C(=O)O)C[C@@H](O)[C@H]1O` [Chlorogenic Acid, 1,3,4,5-tetrahydroxy-cyclohexanecarboxylic acid 3-(3,4-dihydroxycinnamate)], the “HT22 Cell IAA assay (maximal % protection)” value in assay [1] (20 μM IAA) stood at 45%. Further, the EC50 in assay [1] (setting [3]) was found to be 5000 nM.
In assay [2], `O=c1c(O)c(-c2ccc(O)c(O)c2)oc2cc(O)ccc12` [Fisetin, 3,7,3′,4′-Tetrahydroxyflavone, reference compound] returned a TEAC of 3. The “HT22 Cell IAA assay (maximal % protection)” value in assay [1] (20 μM IAA) was 90%. Moreover, in assay [1] (HT22 cells), the “increase of survival over the neuroprotective concentration range” value is “greater than 85%” and the neuroprotective concentration range was in the range of 5 to 25 µM. For the same molecule, in assay [1] (setting [4]), the EC50 was found to be 3000 nM. For the same molecule, the EC50 in assay [1] (setting [3]) was found to be 3000 nM.

What is called EC50 is the concentration needed to bring the measured effect to its halfway point.
